Measurements published in patent US9079901B2, “Fused heterocyclic compounds as ion channel modulators” (Gilead Sciences, Inc., priority 2010, dated 2015).

What follows are compounds tested against wild-type human cardiac sodium channel, hNav1.5 (late sodium current) in HEK293 cells (Homo sapiens, UniProt Q14524) (assay: Late INa screening assay (automated whole-cell patch clamp, PatchXpress)). Settings: HEK293, compound at 1 μM; late INa generated with 10 μM Tefluthrin (or 50 nM ATX II); HEK293 hNav1.5; read-out: Late INa 1 μM (percent block of late INa).
Format: cell-based
Summary of the method: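 hNav1.5-expressing HEK293 cells (no β subunits) were recorded by automated whole-cell patch clamp at 24–27 °C with CsF-based internal solution. Late current was induced by 10 μM tefluthrin (or 50 nM ATX II) and evoked by 250 ms steps from −120 to −20 mV at 0.1 Hz. Compounds, typically 10 μM, were applied in three additions over 7–8 min; mean current at 225–250 ms, normalised to 0Na baseline, gave percent block.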

Chain of wild-type human cardiac sodium channel, hNav1.5 (late sodium current) in HEK293 cells (Q14524 whole entry): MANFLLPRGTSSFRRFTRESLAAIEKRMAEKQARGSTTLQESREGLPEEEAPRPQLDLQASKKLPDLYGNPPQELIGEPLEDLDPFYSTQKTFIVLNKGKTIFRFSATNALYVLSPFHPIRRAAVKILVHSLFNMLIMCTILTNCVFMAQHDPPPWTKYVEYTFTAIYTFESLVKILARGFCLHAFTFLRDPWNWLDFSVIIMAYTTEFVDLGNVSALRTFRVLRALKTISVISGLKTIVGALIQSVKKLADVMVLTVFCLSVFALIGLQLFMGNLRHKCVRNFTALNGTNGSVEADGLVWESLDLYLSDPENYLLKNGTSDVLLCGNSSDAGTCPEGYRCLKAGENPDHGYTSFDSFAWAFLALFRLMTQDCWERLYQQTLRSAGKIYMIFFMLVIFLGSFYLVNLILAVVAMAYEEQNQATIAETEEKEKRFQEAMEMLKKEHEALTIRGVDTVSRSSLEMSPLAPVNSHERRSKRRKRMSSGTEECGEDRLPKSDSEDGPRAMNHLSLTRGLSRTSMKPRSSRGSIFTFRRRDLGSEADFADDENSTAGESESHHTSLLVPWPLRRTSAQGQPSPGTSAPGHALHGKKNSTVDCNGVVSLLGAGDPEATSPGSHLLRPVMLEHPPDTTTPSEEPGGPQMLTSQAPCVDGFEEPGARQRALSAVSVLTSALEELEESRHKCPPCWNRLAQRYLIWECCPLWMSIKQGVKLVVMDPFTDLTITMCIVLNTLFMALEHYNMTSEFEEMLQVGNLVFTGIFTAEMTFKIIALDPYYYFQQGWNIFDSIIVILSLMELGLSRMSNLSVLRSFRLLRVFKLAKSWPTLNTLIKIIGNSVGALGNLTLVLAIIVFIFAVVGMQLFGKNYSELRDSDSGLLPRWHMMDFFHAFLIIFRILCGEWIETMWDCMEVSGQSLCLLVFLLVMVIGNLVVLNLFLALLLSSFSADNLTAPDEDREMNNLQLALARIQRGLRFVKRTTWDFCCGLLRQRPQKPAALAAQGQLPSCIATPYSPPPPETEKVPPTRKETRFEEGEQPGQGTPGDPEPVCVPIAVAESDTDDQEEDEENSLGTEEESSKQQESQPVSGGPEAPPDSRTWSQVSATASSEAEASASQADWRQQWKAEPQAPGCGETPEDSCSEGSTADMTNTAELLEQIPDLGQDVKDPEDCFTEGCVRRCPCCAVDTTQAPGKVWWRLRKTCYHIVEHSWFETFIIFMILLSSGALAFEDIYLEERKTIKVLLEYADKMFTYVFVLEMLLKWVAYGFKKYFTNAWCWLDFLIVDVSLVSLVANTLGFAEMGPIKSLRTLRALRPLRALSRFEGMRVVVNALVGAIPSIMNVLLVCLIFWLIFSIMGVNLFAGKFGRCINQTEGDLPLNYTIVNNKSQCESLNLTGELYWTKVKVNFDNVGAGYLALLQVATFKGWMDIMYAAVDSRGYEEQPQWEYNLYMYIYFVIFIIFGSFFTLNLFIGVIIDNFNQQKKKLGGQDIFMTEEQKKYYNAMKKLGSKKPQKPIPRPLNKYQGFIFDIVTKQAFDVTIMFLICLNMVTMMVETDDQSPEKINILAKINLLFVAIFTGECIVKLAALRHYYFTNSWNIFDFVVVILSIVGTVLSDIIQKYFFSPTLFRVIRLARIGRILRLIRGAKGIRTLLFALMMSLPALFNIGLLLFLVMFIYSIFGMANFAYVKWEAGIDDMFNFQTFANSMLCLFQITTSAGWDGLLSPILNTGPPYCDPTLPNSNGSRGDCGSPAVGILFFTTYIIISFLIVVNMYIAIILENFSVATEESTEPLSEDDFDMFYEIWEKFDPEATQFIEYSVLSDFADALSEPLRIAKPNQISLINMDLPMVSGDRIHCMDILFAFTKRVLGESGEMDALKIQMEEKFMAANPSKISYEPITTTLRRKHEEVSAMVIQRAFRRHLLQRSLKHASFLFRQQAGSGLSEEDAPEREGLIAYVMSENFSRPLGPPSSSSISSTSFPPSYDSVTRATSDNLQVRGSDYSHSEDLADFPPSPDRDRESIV

Compound	inhibition at 1 µM [%]
O=c1n(Cc2nnc(C3CC3)o2)nc2ccc(-c3ccc(Oc4ccc(F)cc4)cc3)cn12 [compound 182, 2-((5-cyclopropyl-1,3,4-oxadiazol-2-yl)methyl)-6-(4-(4-fluorophenoxy)phenyl)-[1,2,4]triazolo[4,3-a]pyridin-3(2H)-one]	45.9
O=c1n(Cc2noc(CCl)n2)nc2ccc(-c3ccc(OC(F)(F)F)cc3)cn12 [compound 157, 2-((5-(chloromethyl)-1,2,4-oxadiazol-3-yl)methyl)-6-(4-(trifluoromethoxy)phenyl)-[1,2,4]triazolo[4,3-a]pyridin-3(2H)-one]	22.7
O=c1n(Cc2nnc(C3CC3)s2)nc2ccc(-c3ccc(OC(F)(F)F)cc3)cn12 [compound 170, 2-((5-cyclopropyl-1,3,4-thiadiazol-2-yl)methyl)-6-(4-(trifluoromethoxy)phenyl)-[1,2,4]triazolo[4,3-a]pyridin-3(2H)-one]	18
Cc1nc(Cn2nc3ccc(-c4ccc(OC(F)(F)F)cc4)cn3c2=O)no1 [compound 3, 2-((5-methyl-1,2,4-oxadiazol-3-yl)methyl)-6-(4-(trifluoromethoxy)phenyl)-[1,2,4]triazolo[4,3-a]pyridin-3(2H)-one]	29.3
CO[C@@H](COc1ccccc1Cl)Cn1nc2ccc(-c3ccc(OC(F)(F)F)cc3)cn2c1=O [compound 96, (R)-2-(3-(2-chlorophenoxy)-2-methoxypropyl)-6-(4-(trifluoromethoxy)phenyl)-[1,2,4]triazolo[4,3-a]pyridin-3(2H)-one]	46.1
CC(Cn1nc2ccc(-c3ccc(OC(F)(F)F)cc3)cn2c1=O)c1ccccn1 (centres unmarked) [compound 102, 2-(2-(pyridin-2-yl)propyl)-6-(4-(trifluoromethoxy)phenyl)-[1,2,4]triazolo[4,3-a]pyridin-3(2H)-one]	36.2
O=c1n(CCOc2nccc3ccccc23)nc2ccc(-c3ccc(OC(F)(F)F)cc3)cn12 [compound 141, 2-(2-(isoquinolin-1-yloxy)ethyl)-6-(4-(trifluoromethoxy)phenyl)-[1,2,4]triazolo[4,3-a]pyridin-3(2H)-one]	29.9
O=c1n(CCCOc2ccccc2Cl)nc2ccc(-c3ccc(OC(F)(F)F)cc3)cn12 [compound 52, 2-(3-(2-chlorophenoxy)propyl)-6-(4-(trifluoromethoxy)phenyl)-[1,2,4]triazolo[4,3-a]pyridin-3(2H)-one]	33.3
CC(C)Oc1ccccc1OCC(O)Cn1nc2ccc(-c3ccc(OC(F)(F)F)cc3)cn2c1=O (centres unmarked) [compound 108, 2-(2-hydroxy-3-(2-isopropoxyphenoxy)propyl)-6-(4-(trifluoromethoxy)phenyl)-[1,2,4]triazolo[4,3-a]pyridin-3(2H)-one]	41.5
Cc1noc(Cn2nc3ccc(-c4ccc(C(F)(F)F)cc4)cn3c2=O)n1 [compound 137, 2-((3-methyl-1,2,4-oxadiazol-5-yl)methyl)-6-(4-(trifluoromethyl)phenyl)-[1,2,4]triazolo[4,3-a]pyridin-3(2H)-one]	28.8
CC1(C)OC[C@H](c2nc(Cn3nc4ccc(-c5ccc(OC(F)(F)F)cc5)cn4c3=O)no2)O1 [compound 158, (R)-2-((5-(2,2-dimethyl-1,3-dioxolan-4-yl)-1,2,4-oxadiazol-3-yl)methyl)-6-(4-(trifluoromethoxy)phenyl)-[1,2,4]triazolo[4,3-a]pyridin-3(2H)-one]	25.3
O=c1[nH]nc2ccc(-c3ccc(C(F)(F)F)cc3)cn12 [compound 171, 6-(4-(trifluoromethyl)phenyl)-[1,2,4]triazolo[4,3-a]pyridin-3(2H)-one]	19.6
CCOc1ccccc1OCc1nc(Cn2nc3ccc(-c4ccc(OC(F)(F)F)cc4)cn3c2=O)no1 [compound 176, 2-((5-((2-ethoxyphenoxy)methyl)-1,2,4-oxadiazol-3-yl)methyl)-6-(4-(trifluoromethoxy)phenyl)-[1,2,4]triazolo[4,3-a]pyridin-3(2H)-one]	25.5
O=c1n(Cc2noc(COc3ncccn3)n2)nc2ccc(-c3ccc(OC(F)(F)F)cc3)cn12 [compound 162, 2-((5-((pyrimidin-2-yloxy)methyl)-1,2,4-oxadiazol-3-yl)methyl)-6-(4-(trifluoromethoxy)phenyl)-[1,2,4]triazolo[4,3-a]pyridin-3(2H)-one]	18.5
O=c1n(CCOc2ncccn2)nc2ccc(-c3ccc(Oc4ccc(Cl)cc4)cc3)cn12 [compound 120, 6-(4-(4-chlorophenoxy)phenyl)-2-(2-(pyrimidin-2-yloxy)ethyl)-[1,2,4]triazolo[4,3-a]pyridin-3(2H)-one]	73.9
O=c1n(CCOc2nccc(Oc3ccc(Cl)cc3)n2)nc2ccc(-c3ccc(OC(F)(F)F)cc3)cn12 [compound 132, 2-(2-(4-(4-chlorophenoxy)pyrimidin-2-yloxy)ethyl)-6-(4-(trifluoromethoxy)phenyl)-[1,2,4]triazolo[4,3-a]pyridin-3(2H)-one]	11

Compound	inhibition at 1 µM [%]
Cc1cc(-c2ccc(OC(F)(F)F)cc2)cn2c(=O)[nH]nc12 [compound 196, 8-methyl-6-(4-(trifluoromethoxy)phenyl)-[1,2,4]triazolo[4,3-a]pyridin-3(2H)-one]	38.3
Cn1ccc(Cn2nc3ccc(-c4ccc(OC(F)(F)F)cc4)cn3c2=O)n1 [compound 165, 2-((1-methyl-1H-pyrazol-3-yl)methyl)-6-(4-(trifluoromethoxy)phenyl)-[1,2,4]triazolo[4,3-a]pyridin-3(2H)-one]	10.8
O=c1n(CCOc2ncc(C(F)(F)F)cn2)nc2ccc(-c3ccc(OC(F)(F)F)cc3)cn12 [compound 180, 6-(4-(trifluoromethoxy)phenyl)-2-(2-(5-(trifluoromethyl)pyrimidin-2-yloxy)ethyl)-[1,2,4]triazolo[4,3-a]pyridin-3(2H)-one]	22.6
O=c1n(CCOc2nccc(OCC(F)(F)F)n2)nc2ccc(-c3ccc(OC(F)(F)F)cc3)cn12 [compound 178, 2-(2-(4-(2,2,2-trifluoroethoxy)pyrimidin-2-yloxy)ethyl)-6-(4-(trifluoromethoxy)phenyl)-[1,2,4]triazolo[4,3-a]pyridin-3(2H)-one]	14.2
O=c1n(CCCc2ccc(F)c(-c3ncco3)c2)nc2ccc(-c3ccc(OC(F)(F)F)cc3)cn12 [compound 119, 2-(3-(4-fluoro-3-(oxazol-2-yl)phenyl)propyl)-6-(4-(trifluoromethoxy)phenyl)-[1,2,4]triazolo[4,3-a]pyridin-3(2H)-one]	22
Cc1cccnc1-c1cc(Cn2nc3ccc(-c4ccc(OC(F)(F)F)cc4)cn3c2=O)no1 [compound 145, 2-((5-(3-methylpyridin-2-yl)isoxazol-3-yl)methyl)-6-(4-(trifluoromethoxy)phenyl)-[1,2,4]triazolo[4,3-a]pyridin-3(2H)-one]	37.7
Cn1nc2ccc(-c3ccc(C(F)(F)F)cc3)cn2c1=O [compound 185, 2-methyl-6-(4-(trifluoromethyl)phenyl)-[1,2,4]triazolo[4,3-a]pyridin-3(2H)-one]	10.1
O=c1n(CCCOc2cnccn2)nc2ccc(-c3ccc(OC(F)(F)F)cc3)cn12 [compound 85, 2-(3-(pyrazin-2-yloxy)propyl)-6-(4-(trifluoromethoxy)phenyl)-[1,2,4]triazolo[4,3-a]pyridin-3(2H)-one]	12.2
COCc1nc(Cn2nc3ccc(-c4ccc(OC(F)(F)F)cc4)cn3c2=O)no1 [compound 128, 2-((5-(methoxymethyl)-1,2,4-oxadiazol-3-yl)methyl)-6-(4-(trifluoromethoxy)phenyl)-[1,2,4]triazolo[4,3-a]pyridin-3(2H)-one]	22
COC[C@@H](Cn1nc2ccc(-c3ccc(OC(F)(F)F)cc3)cn2c1=O)Oc1ncccc1C(F)(F)F [compound 72, (R)-2-(3-methoxy-2-(3-(trifluoromethyl)pyridin-2-yloxy)propyl)-6-(4-(trifluoromethoxy)phenyl)-[1,2,4]triazolo[4,3-a]pyridin-3(2H)-one]	41.9
O=c1n(CCOc2ncc(Cl)cn2)nc2ccc(-c3ccc(OC(F)(F)F)cc3)cn12 [compound 92, 2-(2-(5-chloropyrimidin-2-yloxy)ethyl)-6-(4-(trifluoromethoxy)phenyl)-[1,2,4]triazolo[4,3-a]pyridin-3(2H)-one]	35.3
Cn1nc2ccc(-c3ccc(OC(F)(F)F)cc3)cn2c1=O [compound 201, 2-methyl-6-(4-(trifluoromethoxy)phenyl)-[1,2,4]triazolo[4,3-a]pyridin-3(2H)-one]	38.7
O=c1n(Cc2cccc(C(F)(F)F)n2)nc2ccc(-c3ccc(OC(F)(F)F)cc3)cn12 [compound 62, 6-(4-(trifluoromethoxy)phenyl)-2-((6-(trifluoromethyl)pyridin-2-yl)methyl)-[1,2,4]triazolo[4,3-a]pyridin-3(2H)-one]	21.6
Cc1ccc(OCCn2nc3ccc(-c4ccc(OC(F)(F)F)cc4)cn3c2=O)cc1 [compound 75, 2-(2-(p-tolyloxy)ethyl)-6-(4-(trifluoromethoxy)phenyl)-[1,2,4]triazolo[4,3-a]pyridin-3(2H)-one]	25.7
Cc1noc(-c2ccccc2OCCn2nc3ccc(-c4ccc(OC(F)(F)F)cc4)cn3c2=O)n1 [compound 84, 2-(2-(2-(3-methyl-1,2,4-oxadiazol-5-yl)phenoxy)ethyl)-6-(4-(trifluoromethoxy)phenyl)-[1,2,4]triazolo[4,3-a]pyridin-3(2H)-one]	34.3
CC(=O)OCc1nc(Cn2nc3ccc(-c4ccc(OC(F)(F)F)cc4)cn3c2=O)no1 [compound 94, (3-((3-oxo-6-(4-(trifluoromethoxy)phenyl)-[1,2,4]triazolo[4,3-a]pyridin-2(3H)-yl)methyl)-1,2,4-oxadiazol-5-yl)methyl acetate]	28.2
